This is an account of results in PubChem BioAssay (NCI).

Molecules are shown by their SMILES.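 These data come from cells grown in 96-well plates and exposed to compound for 48 hours at five concentrations. TGI marks complete inhibition of growth.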

The test system of the first assay is SF-295 CNS. Kind of assay: NCI anticancer screen, dose series, 48 h.
`CCOC(=O)c1cc(C2(O)CCN(CC(C)CC)C2=O)c(-c2cc(C)no2)[nH]1` (stereo unspecified): the TGI was greater than 100 µM.

Another assay relates to SR leukemia. The assay is described as follows: NCI anticancer screen, dose series, 48 h.
Compound `CCOC(=O)c1csc(NC(=O)CN2CCN(C)CC2)n1` registered a TGI greater than 100 µM.
`CSc1ncnc2c1cnn2CCCCO`: the TGI was greater than 100 µM.
On the same count and under the same terms, the same measure for `O=C(NC(CO)Cc1ccc(Oc2cc(CC(CO)NC(=O)OCc3ccccc3)ccc2OC(=O)OCc2ccccc2)cc1)OCc1ccccc1` (stereo unspecified): 60.8 µM; for `CN1C(=O)C(CC=O)(C(C)(C)C)c2ccccc21` (stereo unspecified): greater than 100 µM; for `CN(CCN(C)C(=S)NN)C(=S)NN`: greater than 100 µM.
Same read-out and setting: for `COc1ccc(CCN=C2OCc3ccccc32)cc1OC` the value was 62.3 µM; for `Oc1ccc(-c2nc(-c3ccc(F)cc3)c(-c3ccc4ccccc4n3)[nH]2)cc1`, greater than 100 µM.
The same measure, in the same setting: for `CC(=O)Nc1ccc(-c2nc3ccccc3s2)cc1` the value was greater than 100 µM.
In the case of `COC(=O)c1c(O)ccc2c1c1c(n2Cc2ccc(Cl)cc2Cl)C(=O)c2ccccc2C1`, the TGI is greater than 100 µM.
As to `CCOC(=O)c1cc(C2(O)CCN(CC(C)CC)C2=O)c(-c2cc(C)no2)[nH]1` (stereo unspecified), the TGI was greater than 100 µM.

A further assay has as its system SW-620 colon. The assay is described as follows: NCI anticancer screen, dose series, 48 h.
On to `CCOC(=O)c1csc(NC(=O)CN2CCN(C)CC2)n1`, for which the TGI is greater than 100 µM.
Compound `CSc1ncnc2c1cnn2CCCCO` yielded a TGI greater than 100 µM.
Still for that read-out and setting: for `CC(NNC(=O)CC(=O)N(C(=O)c1ccccc1)c1ccc(Cl)cc1)c1cc2ccccc2oc1=O` (stereo unspecified) the value was greater than 10 µM; for `O=C(NC(CO)Cc1ccc(Oc2cc(CC(CO)NC(=O)OCc3ccccc3)ccc2OC(=O)OCc2ccccc2)cc1)OCc1ccccc1` (stereo unspecified), greater than 100 µM.
The same measure, in the same setting: the same measure for `COc1ccc(-c2c(C#N)c(O)n(NS(=O)(=O)c3ccc(C)cc3)c(=O)c2C#N)cc1`: greater than 100 µM.
`CN1C(=O)C(CC=O)(C(C)(C)C)c2ccccc21` (stereo unspecified) yielded a TGI greater than 100 µM.
For the compound `CN(CCN(C)C(=S)NN)C(=S)NN`, the TGI was greater than 100 µM.
Compound `CSc1nncc2[nH]c(C)nc12` gave a TGI greater than 100 µM.
`COc1ccc(CCN=C2OCc3ccccc32)cc1OC` returned a TGI greater than 100 µM.
As to `CCCCn1c(C)c2c(c1C)C(=O)N(CC(O)CN1CCc3ccccc3C1)C2=O` (stereo unspecified), the TGI was greater than 100 µM.
Still for that read-out and setting: the same measure for `Oc1ccc(-c2nc(-c3ccc(F)cc3)c(-c3ccc4ccccc4n3)[nH]2)cc1`: 29.1 µM; for `CC(=O)Nc1ccc(-c2nc3ccccc3s2)cc1`: greater than 100 µM.
Still for that read-out and setting: for `COc1ccc(-c2nc(SCC(=O)N/N=C/c3ccc(O)c(OC)c3)[nH]c2-c2ccc(OC)cc2)cc1` the value was greater than 100 µM; for `COC(=O)c1c(O)ccc2c1c1c(n2Cc2ccc(Cl)cc2Cl)C(=O)c2ccccc2C1`, greater than 100 µM; for `CC(/C=N\NC(=S)N1CCCCC1)=N/NC(=S)N1CCCCC1`, 14.7 µM.
The same measure, in the same setting: the same measure for `CCOC(=O)c1cc(C2(O)CCN(CC(C)CC)C2=O)c(-c2cc(C)no2)[nH]1` (stereo unspecified): greater than 100 µM.

Another assay relates to TK-10 renal. Kind of assay: NCI anticancer screen, dose series, 48 h.
The compound `CCOC(=O)c1csc(NC(=O)CN2CCN(C)CC2)n1` displayed a TGI greater than 100 µM.
Same read-out and setting: for `CSc1ncnc2c1cnn2CCCCO` the value was greater than 100 µM; for `CC(NNC(=O)CC(=O)N(C(=O)c1ccccc1)c1ccc(Cl)cc1)c1cc2ccccc2oc1=O` (stereo unspecified), greater than 10 µM.
Compound `O=C(NC(CO)Cc1ccc(Oc2cc(CC(CO)NC(=O)OCc3ccccc3)ccc2OC(=O)OCc2ccccc2)cc1)OCc1ccccc1` (stereo unspecified) gave a TGI of 54.1 µM.
On the same count and under the same terms, the same measure for `COc1ccc(-c2c(C#N)c(O)n(NS(=O)(=O)c3ccc(C)cc3)c(=O)c2C#N)cc1`: greater than 100 µM.
Still for that read-out and setting: for `CSc1nncc2[nH]c(C)nc12` the value was greater than 100 µM; for `COc1ccc(CCN=C2OCc3ccccc32)cc1OC`, greater than 100 µM; for `CCCCn1c(C)c2c(c1C)C(=O)N(CC(O)CN1CCc3ccccc3C1)C2=O` (stereo unspecified), greater than 100 µM.
Same read-out and setting: for `Oc1ccc(-c2nc(-c3ccc(F)cc3)c(-c3ccc4ccccc4n3)[nH]2)cc1` the value was 26 µM; for `CC(=O)Nc1ccc(-c2nc3ccccc3s2)cc1`, greater than 100 µM; for `COc1ccc(-c2nc(SCC(=O)N/N=C/c3ccc(O)c(OC)c3)[nH]c2-c2ccc(OC)cc2)cc1`, greater than 100 µM.
In turn, `COC(=O)c1c(O)ccc2c1c1c(n2Cc2ccc(Cl)cc2Cl)C(=O)c2ccccc2C1` came in with a TGI greater than 100 µM.
Same read-out and setting: the same measure for `CC(/C=N\NC(=S)N1CCCCC1)=N/NC(=S)N1CCCCC1`: 11.8 µM.

The next assay deals with U251 CNS. Kind of assay: NCI anticancer screen, dose series, 48 h.
As to `CCOC(=O)c1csc(NC(=O)CN2CCN(C)CC2)n1`, the TGI was greater than 100 µM.
Still for that read-out and setting: for `CSc1ncnc2c1cnn2CCCCO` the value was greater than 100 µM; for `CC(NNC(=O)CC(=O)N(C(=O)c1ccccc1)c1ccc(Cl)cc1)c1cc2ccccc2oc1=O` (stereo unspecified), greater than 10 µM.
Still for that read-out and setting: the same measure for `COc1ccc(-c2c(C#N)c(O)n(NS(=O)(=O)c3ccc(C)cc3)c(=O)c2C#N)cc1`: greater than 100 µM.
Same read-out and setting: for `CN1C(=O)C(CC=O)(C(C)(C)C)c2ccccc21` (stereo unspecified) the value was greater than 100 µM; for `CN(CCN(C)C(=S)NN)C(=S)NN`, greater than 100 µM; for `CSc1nncc2[nH]c(C)nc12`, greater than 100 µM.
`COc1ccc(CCN=C2OCc3ccccc32)cc1OC` registered a TGI greater than 100 µM.
The same measure, in the same setting: the same measure for `CCCCn1c(C)c2c(c1C)C(=O)N(CC(O)CN1CCc3ccccc3C1)C2=O` (stereo unspecified): greater than 100 µM.
On the same count and under the same terms, for `Oc1ccc(-c2nc(-c3ccc(F)cc3)c(-c3ccc4ccccc4n3)[nH]2)cc1` the value was 24.4 µM.
Same read-out and setting: the same measure for `CC(=O)Nc1ccc(-c2nc3ccccc3s2)cc1`: 92.6 µM.
`COc1ccc(-c2nc(SCC(=O)N/N=C/c3ccc(O)c(OC)c3)[nH]c2-c2ccc(OC)cc2)cc1`: the TGI was 40.8 µM.
Same read-out and setting: the same measure for `COC(=O)c1c(O)ccc2c1c1c(n2Cc2ccc(Cl)cc2Cl)C(=O)c2ccccc2C1`: greater than 100 µM; for `CC(/C=N\NC(=S)N1CCCCC1)=N/NC(=S)N1CCCCC1`: 13 µM; for `CCOC(=O)c1cc(C2(O)CCN(CC(C)CC)C2=O)c(-c2cc(C)no2)[nH]1` (stereo unspecified): greater than 100 µM.

In another assay the test system is UACC-257 melanoma. The assay is described as follows: NCI anticancer screen, dose series, 48 h.
`CCOC(=O)c1csc(NC(=O)CN2CCN(C)CC2)n1` yielded a TGI greater than 100 µM.
On the same count and under the same terms, the same measure for `CSc1ncnc2c1cnn2CCCCO`: greater than 100 µM.
Same read-out and setting: for `CC(NNC(=O)CC(=O)N(C(=O)c1ccccc1)c1ccc(Cl)cc1)c1cc2ccccc2oc1=O` (stereo unspecified) the value was greater than 10 µM; for `O=C(NC(CO)Cc1ccc(Oc2cc(CC(CO)NC(=O)OCc3ccccc3)ccc2OC(=O)OCc2ccccc2)cc1)OCc1ccccc1` (stereo unspecified), 29 µM; for `COc1ccc(-c2c(C#N)c(O)n(NS(=O)(=O)c3ccc(C)cc3)c(=O)c2C#N)cc1`, greater than 100 µM.
Still for that read-out and setting: the same measure for `CN1C(=O)C(CC=O)(C(C)(C)C)c2ccccc21` (stereo unspecified): greater than 100 µM; for `CN(CCN(C)C(=S)NN)C(=S)NN`: greater than 100 µM.
As to `CSc1nncc2[nH]c(C)nc12`, the TGI is greater than 100 µM.
Consider `COc1ccc(CCN=C2OCc3ccccc32)cc1OC`, for which the TGI is greater than 100 µM.
Still for that read-out and setting: the same measure for `CCCCn1c(C)c2c(c1C)C(=O)N(CC(O)CN1CCc3ccccc3C1)C2=O` (stereo unspecified): greater than 100 µM.
Still for that read-out and setting: the same measure for `Oc1ccc(-c2nc(-c3ccc(F)cc3)c(-c3ccc4ccccc4n3)[nH]2)cc1`: 26.3 µM; for `CC(=O)Nc1ccc(-c2nc3ccccc3s2)cc1`: greater than 100 µM.
Same read-out and setting: the same measure for `COc1ccc(-c2nc(SCC(=O)N/N=C/c3ccc(O)c(OC)c3)[nH]c2-c2ccc(OC)cc2)cc1`: 69.5 µM; for `COC(=O)c1c(O)ccc2c1c1c(n2Cc2ccc(Cl)cc2Cl)C(=O)c2ccccc2C1`: greater than 100 µM; for `CC(/C=N\NC(=S)N1CCCCC1)=N/NC(=S)N1CCCCC1`: 15.4 µM.
`CCOC(=O)c1cc(C2(O)CCN(CC(C)CC)C2=O)c(-c2cc(C)no2)[nH]1` (stereo unspecified) returned a TGI greater than 100 µM.
